Consider three sequences from patent US20240173377A1, “RETRO - INVERSO REGULATORY T CELL EPITOPES” (EpiVax, Inc., priority 2020, published 2024).

Entries after “also recorded” stand apart in the source; their conditions may differ.

The target of experiment [1] is Class II HLA alleles (HLA DRB1). Put plainly: HLA binding assay (soluble MHC, competition with labeled control peptide). Also on record: species or system human. The following applies: retro-inverso peptide versus L-amino acid counterpart (SEQ ID NOS: 114 and 115); HLA DRB1 *0101, *0301, *0401, *0401, *0701, *1101, *1301 and *1501; FIG. 3. As for the experimental part: HLA Binding Assay. Binding activity is analyzed at EpiVax (Providence, Rhode Island). The binding assay used (Steere A C et al., (2006), J Exp Med, 2003(4):961-71) yields an indirect measure of peptide-MHC affinity. Soluble HLA molecules are loaded onto a 96-well plate with the unlabeled experimental retro-inverso Tregitopes and labeled control peptide. Once the binding mixture reaches steady equilibrium (at 24 hours), the HLA-retro-inverso Tregitope complexes are captured on an ELISA plate coated with anti-human DR antibody and detected with a Europium-linked probe for the label (PerkinElmer, Waltham, MA). Time-resolved fluorescence measuring bound labeled control peptide is assessed by a SpectraMax® M5 unit (Spectramax, Radnor, PA). Binding of experimental retro-inverso Tregitopes is expressed as the percent inhibition of the labeled control peptide ([…]). The percent inhibition values for each experimental retro-inverso Tregitope (across a range of molar concentrations) is used to calculate the concentration at which it inhibits 50% of the labeled control […] specific binding, i.e. the retro-inverso Tregitope's IC50. […]

In experiment [2] the test system is CD4+ T cells. Put plainly: Tetanus Toxoid bystander assay, CD4+ T cell proliferation in PBMC (CFSE). Type of experiment: cell-based, human. The following applies: TT-treated PBMCs of four donors; versus L-amino acid counterparts (SEQ ID NOS: 114 and 115); FIGS. 7A-7B, 8A-8B. The source says: The purpose of this experiment is to establish the ability of the instantly-disclosed retro-inverso Tregitopes (e.g., any one or more of SEQ ID NO: 1-29 and 42-107 and/or fragments and variants thereof, and optionally 1 to 12 additional amino acids distributed in any ratio on the N-terminus and/or C-terminus of the polypeptide of SEQ ID NOS: 1-29 and 42-107 as disclosed herein, wherein each of the amino acids of SEQ ID NOS: 1-29 and 42-107 (and in aspects, the optional extensions thereof) except for glycine are in the D-amino acid configuration) of the instant disclosure to suppress the proliferation CD4+ Tcells, including antigen stimulated CD4+ effector memory T cells, which in aspects is by either direct (engagement and activation of TReg) or indirect (modulation of APC phenotype) means. […]

Experiment [3] concerns human DR molecules. The following applies: cited from earlier work.
Experiment [4] relates to PBMCs from lupus patients. Particulars: randomly selected lupus patients; cited from earlier work.

Consider DQHLVTLVSVVTYTSNYQEE [SEQ ID NO: 16], for which the “IC50 values, binding to HLA DRB1 alleles” value in experiment [1] is recorded as “scored comparably; also recorded: comparable affinity”. Further, in experiment [2], the “ability to reduce CD4+ cell proliferation” value is on record as “comparable ability”.
In the same order, the values of KGYIFSHGTFHITLI [SEQ ID NO: 100] are “scored comparably; also recorded: comparable affinity” and “comparable ability”.
As to “RIHMVYSKRSGKPRGYAFIEY (listed as Homo sapiens) [peptide 131-151]”, in experiment [3], the “binding to soluble HLA class II molecules” value is “binds to a large panel of human DR molecules”. The “lupus patients whose PBMCs contain T cells that proliferate in response to the peptide” value in experiment [4] is 40%.
